Laboratory results reported in patent US9029368B2, “3,7-disubstituted octahydro-2H-pyrido[4,3-E][1,3]oxazin-2-one antibiotics” (Actelion Pharmaceuticals Ltd., priority 2011, dated 2015).
Converted amounts (≈) assume the structure as drawn.

System: S. aureus 29213
Test: Bacterial growth minimal inhibitory concentrations (microdilution in cation-adjusted Mueller-Hinton Broth, CLSI M7-A7)
Assay type: cell-based
Conditions: Staphylococcus aureus, 29213, microdilution method
Experimental: Bacterial Growth Minimal Inhibitory Concentrations: Minimal inhibitory concentrations (MICs; mg/l) were determined in cation-adjusted Mueller-Hinton Broth by a microdilution method following the description given in “Methods for Dilution Antimicrobial Susceptibility Tests for Bacteria that Grow Aerobically”, Approved standard, 7th ed., Clinical and Laboratory Standards Institute (CLSI) Document M7-A7, Wayne, Pa., USA, 2006. All Example compounds were tested against several Gram positive and Gram negative bacteria.

Row | Structure (SMILES) | MIC [µg/mL]
1 | COc1ccc2ccc(=O)n(CCN3CC[C@@H]4CN(c5ccc6c(n5)NC(=O)CO6)C(=O)O[C@H]4C3)c2n1 (racemic) [Example 25, rac-(4aR*,8aR*)-7-[2-(7-methoxy-2-oxo-2H-[1,8]naphthyridin-1-yl)-ethyl]-3-(3-oxo-3,4-dihydro-2H-pyrido[3,2-b][1,4]oxazin-6-yl)-octahydro-pyrido[4,3-e][1,3]oxazin-2-one] | ≤ 0.031
2 | COc1ccc2ccc(=O)n(CCN3CC[C@@H]4CN(c5ccc6c(n5)NC(=O)CS6)C(=O)O[C@H]4C3)c2n1 (racemic) [Example 26, rac-(4aR*,8aR*)-7-[2-(7-methoxy-2-oxo-2H-[1,8]naphthyridin-1-yl)-ethyl]-3-(3-oxo-3,4-dihydro-2H-pyrido[3,2-b][1,4]thiazin-6-yl)-octahydro-pyrido[4,3-e][1,3]oxazin-2-one] | ≤ 0.031
3 | COc1ccc2ncc(F)c(CCN3CC[C@@H]4CN(c5cc6c(nn5)OCCS6)C(=O)O[C@H]4C3)c2n1 (racemic) [Example 27, rac-(4aR*,8aR*)-3-(6,7-dihydro-8-oxa-5-thia-1,2-diaza-naphthalen-3-yl)-7-[2-(3-fluoro-6-methoxy-[1,5]naphthyridin-4-yl)-ethyl]-octahydro-pyrido[4,3-e][1,3]oxazin-2-one] | ≤ 0.031
4 | COc1ccc2ncc(F)c(CCN3CC[C@@H]4CN(c5ccc6c(c5)OCCO6)C(=O)O[C@H]4C3)c2n1 (single isomer, unassigned) [Example 1] | ≤ 0.031
5 | COc1ccc2ncc(F)c(CCN3CC[C@H]4CN(c5ccc6c(c5)OCCO6)C(=O)O[C@@H]4C3)c2n1 (single isomer, unassigned) [Example 2] | ≤ 0.031
6 | COc1ccc2ncc(F)c([C@H](O)CN3CC[C@H]4CN(c5ccc6c(c5)OCCO6)C(=O)O[C@@H]4C3)c2n1 (single isomer, unassigned) [Example 14] | ≤ 0.031
7 | COc1ccc2ncc(F)c([C@H](O)CN3CC[C@@H]4CN(c5ccc6c(c5)OCCO6)C(=O)O[C@H]4C3)c2n1 (single isomer, unassigned) [Example 15] | 0.063 (≈ 0.123 µM)
8 | COc1ccc2ncc(F)c(CCN3CC[C@@H]4CN(c5ccc6c(n5)NC(=O)CS6)C(=O)O[C@H]4C3)c2n1 (single isomer, unassigned) [Example 20] | ≤ 0.031
9 | COc1ccc2ncc(F)c(CCN3CC[C@H]4CN(c5ccc6c(n5)NC(=O)CS6)C(=O)O[C@@H]4C3)c2n1 (single isomer, unassigned) [Example 21] | ≤ 0.031

The next lines start with the values.

Row | MIC [µg/mL] | Structure (SMILES)
10 | ≤ 0.031 | COc1ccc2ncc(=O)n(CCN3CC[C@@H]4CN(c5cc6c(nn5)OCCS6)C(=O)O[C@H]4C3)c2n1 (racemic) [Example 28, rac-(4aR*,8aR*)-3-(6,7-dihydro-8-oxa-5-thia-1,2-diaza-naphthalen-3-yl)-7-[2-(6-methoxy-3-oxo-3H-pyrido[2,3-b]pyrazin-4-yl)-ethyl]-octahydro-pyrido[4,3-e][1,3]oxazin-2-one]
11 | 0.5 (≈ 1.02 µM) | O=C1O[C@H]2CN(CC3Cn4c(=O)ccc5ncc(F)c3c54)CC[C@@H]2CN1c1ccc2c(c1)OCCO2 (mixture of isomers) [Example 30, (RS)-4-[(4aR*,8aR*)-3-(2,3-dihydro-benzo[1,4]dioxin-6-yl)-2-oxo-octahydro-pyrido[4,3-e][1,3]oxazin-7-ylmethyl]-3-fluoro-4,5-dihydro-pyrrolo[3,2,1-de][1,5]naphthyridin-7-one]
12 | ≤ 0.031 | COc1ccc2ccc(=O)n(CCN3CC[C@@H]4CN(c5ccc6c(c5)NC(=O)CS6)C(=O)O[C@H]4C3)c2n1 (racemic) [Example 31, rac-(4aR*,8aR*)-7-(2-(7-methoxy-2-oxo-1,8-naphthyridin-1(2H)-yl)ethyl)-3-(3-oxo-3,4-dihydro-2H-benzo[b][1,4]thiazin-6-yl)octahydro-2H-pyrido[4,3-e][1,3]oxazin-2-one]
13 | 0.125 (≈ 0.239 µM) | COc1ccc2ncc(F)c(C(O)CN3CC[C@@H]4CN(c5ccc6c(c5)NC(=O)CO6)C(=O)O[C@H]4C3)c2n1 (mixture of isomers) [Example 32, (4aR*,8aR*)-7-((2RS)-2-(3-fluoro-6-methoxy-1,5-naphthyridin-4-yl)-2-hydroxyethyl)-3-(3-oxo-3,4-dihydro-2H-benzo[b][1,4]oxazin-6-yl)octahydro-2H-pyrido[4,3-e][1,3]oxazin-2-one]
14 | 0.25 (≈ 0.495 µM) | COc1ccc2ccc(=O)n(CCN3CC[C@@H]4CN(c5ccc6c(c5)NC(=O)CO6)C(=O)O[C@H]4C3)c2n1 (racemic) [Example 34, rac-(4aR*,8aR*)-7-(2-(7-methoxy-2-oxo-1,8-naphthyridin-1(2H)-yl)ethyl)-3-(3-oxo-3,4-dihydro-2H-benzo[b][1,4]oxazin-6-yl)octahydro-2H-pyrido[4,3-e][1,3]oxazin-2-one]
15 | 0.25 (≈ 0.509 µM) | O=C1O[C@H]2CN(C[C@H]3Cc4c(F)ccc5ccc(=O)n3c45)CC[C@@H]2CN1c1ccc2c(c1)OCCO2 (relative stereo) [Example 29, (R)-2-[(4aR*,8aR*)-3-(2,3-dihydro-benzo[1,4]dioxin-6-yl)-2-oxo-octahydro-pyrido[4,3-e][1,3]oxazin-7-ylmethyl]-9-fluoro-1,2-dihydro-pyrrolo[3,2,1-ij]quinolin-4-one]

Same assay, conditions: microdilution method

Row | MIC for S. aureus 29213 [µg/mL] | Structure (SMILES)
16 | 0.125 | O=C1COc2ccc(N3C[C@H]4CCN(C[C@H]5Cc6c(F)ccc7ccc(=O)n5c67)C[C@@H]4OC3=O)nc2N1 (relative stereo) [Example 33, (4aR*,8aR*)-7-0(R)-9-fluoro-4-oxo-2,4-dihydro-1H-pyrrolo[3,2,1-ij]quinolin-2-yl)methyl)-3-(3-oxo-3,4-dihydro-2H-pyrido[3,2-b][1,4]oxazin-6-yl)octahydro-2H-pyrido[4,3-e][1,3]oxazin-2-one]
